Test results from patent EP0041644B1 (priority 1980, dated 1981).

Experiments:
L-1210 Leukemia = L-1210 Leukemia (Table IX); assay type: in vivo, mice
Method: The sodium and ammonium salts of the present invention were tested against transplantable mouse tumors as indicated below.

## O=C1[O][Pt-2]2([NH2+]CC3(CCCCC3)C[NH2+]2)[O]C(=O)C1O [2-hydroxymalonato (1,1-diaminomethylcyclohexane)platinum (II)]
Water solubility
  Water-solubility at room temperature: < 1600 µg/mL
L-1210 Leukemia; 2 mg/kg/inj ip, qd 1→9
  Average Weight Change,g: -1.3 g
  Effect MST % T/C: 138 % T/C
  MST Days: 9.0 days
  Survivors Day 5(45): 6/6
L-1210 Leukemia; 4 mg/kg/inj ip, qd 1→9
  Average Weight Change,g: -1.7 g
  Effect MST % T/C: 192 % T/C
  MST Days: 12.5 days
  Survivors Day 5(45): 6/6
L-1210 Leukemia; 8 mg/kg/inj ip, qd 1→9
  Average Weight Change,g: -2.1 g
  Effect MST % T/C: 269 % T/C
  MST Days: 17.5 days
  Survivors Day 5(45): 6/6
L-1210 Leukemia; 12 mg/kg/inj ip, Day 1
  Average Weight Change,g: -1.6 g
  Effect MST % T/C: 185 % T/C
  MST Days: 12.0 days
  Survivors Day 5(45): 6/6
L-1210 Leukemia; 12 mg/kg/inj ip, qd 1→9
  Average Weight Change,g: -2.1 g
  Effect MST % T/C: 269 % T/C
  MST Days: 17.5 days
  Survivors Day 5(45): 6/6
L-1210 Leukemia; 18 mg/kg/inj ip, Day 1
  Average Weight Change,g: -2.0 g
  Effect MST % T/C: 169 % T/C
  MST Days: 11.5 days
  Survivors Day 5(45): 6/6
L-1210 Leukemia; 24 mg/kg/inj ip, Day 1
  Average Weight Change,g: -2.8 g
  Effect MST % T/C: 223 % T/C
  MST Days: 14.5 days
  Survivors Day 5(45): 6/6
L-1210 Leukemia; 36 mg/kg/inj ip, Day 1
  Average Weight Change,g: -3.6 g
  Effect MST % T/C: 246 % T/C
  MST Days: 16.0 days
  Survivors Day 5(45): 5/6
L-1210 Leukemia; qd 1→9 (cis-DDP 2.4, parent 8 and 12, sodium salt 12 mg/kg/injection)
  maximum T/C: 269%
L-1210 Leukemia; single ip injection at maximum tolerated dose (cis-DDP 8 mg/kg, the two others 36 mg/kg)
  maximum T/C: 246%
